In ChEMBL document CHEMBL5291721, “A preclinical secondary pharmacology resource illuminates target-adverse drug reaction associations of marketed drugs” (Nat Commun, 2023):
Each block holds one compound with its values, some of them ahead of it.

What was measured:
[1] = molecular target: T1, Alpha-1A adrenergic receptor (Homo sapiens, UniProt P35348); assay type: functional, cell-based
T1 sequence (P35348 whole entry): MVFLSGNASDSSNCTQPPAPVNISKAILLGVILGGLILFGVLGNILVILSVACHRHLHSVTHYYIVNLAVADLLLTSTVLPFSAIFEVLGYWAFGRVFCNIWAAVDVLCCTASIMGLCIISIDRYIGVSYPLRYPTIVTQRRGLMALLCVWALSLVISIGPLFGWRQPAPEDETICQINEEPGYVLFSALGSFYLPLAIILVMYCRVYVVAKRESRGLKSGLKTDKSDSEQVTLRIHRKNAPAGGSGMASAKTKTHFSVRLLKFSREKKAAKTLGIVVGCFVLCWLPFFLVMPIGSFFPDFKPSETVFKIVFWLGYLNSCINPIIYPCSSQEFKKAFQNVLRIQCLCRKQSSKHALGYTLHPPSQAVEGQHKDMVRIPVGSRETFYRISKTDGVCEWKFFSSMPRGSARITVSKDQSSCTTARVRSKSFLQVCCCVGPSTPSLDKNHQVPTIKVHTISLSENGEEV

[2] = molecular target: T2, Cholecystokinin receptor type A (Homo sapiens, UniProt P32238)
T2 sequence (P32238 whole entry): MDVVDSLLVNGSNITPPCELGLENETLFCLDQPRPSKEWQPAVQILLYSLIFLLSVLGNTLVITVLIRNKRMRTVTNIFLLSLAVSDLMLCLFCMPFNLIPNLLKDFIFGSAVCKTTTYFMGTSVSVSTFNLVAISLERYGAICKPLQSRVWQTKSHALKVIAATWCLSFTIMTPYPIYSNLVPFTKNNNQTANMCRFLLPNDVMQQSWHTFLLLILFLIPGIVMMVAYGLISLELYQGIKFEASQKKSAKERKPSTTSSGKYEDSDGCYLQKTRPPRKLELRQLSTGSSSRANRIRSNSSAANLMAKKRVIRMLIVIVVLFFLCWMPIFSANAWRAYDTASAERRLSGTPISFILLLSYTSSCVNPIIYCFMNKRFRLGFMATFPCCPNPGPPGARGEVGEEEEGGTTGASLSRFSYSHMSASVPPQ

[3] = molecular target: T3, Prostaglandin G/H synthase 1 (Rattus norvegicus, UniProt Q63921); assay type: functional
T3 sequence (Q63921 whole entry): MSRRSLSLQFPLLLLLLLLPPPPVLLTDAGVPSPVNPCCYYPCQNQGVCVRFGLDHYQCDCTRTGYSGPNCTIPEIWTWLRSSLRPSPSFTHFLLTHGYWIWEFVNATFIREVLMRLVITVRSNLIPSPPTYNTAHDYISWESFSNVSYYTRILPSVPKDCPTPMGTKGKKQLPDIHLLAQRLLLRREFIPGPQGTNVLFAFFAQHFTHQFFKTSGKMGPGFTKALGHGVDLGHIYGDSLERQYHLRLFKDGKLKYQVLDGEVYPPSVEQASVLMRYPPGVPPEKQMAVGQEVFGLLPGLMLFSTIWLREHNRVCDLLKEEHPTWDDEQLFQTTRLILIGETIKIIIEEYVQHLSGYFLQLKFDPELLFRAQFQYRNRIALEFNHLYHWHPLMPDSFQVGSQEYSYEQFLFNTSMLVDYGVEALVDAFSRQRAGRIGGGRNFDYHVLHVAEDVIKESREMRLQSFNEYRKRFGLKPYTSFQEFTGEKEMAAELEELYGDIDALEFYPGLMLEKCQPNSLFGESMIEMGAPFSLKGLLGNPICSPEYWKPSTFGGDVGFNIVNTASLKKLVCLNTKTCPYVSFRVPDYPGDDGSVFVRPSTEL

[4] = molecular target: 5-hydroxytryptamine receptor 2B (Homo sapiens, UniProt P41595); assay type: functional, cell-based
Sequence of 5-hydroxytryptamine receptor 2B (P41595 whole entry): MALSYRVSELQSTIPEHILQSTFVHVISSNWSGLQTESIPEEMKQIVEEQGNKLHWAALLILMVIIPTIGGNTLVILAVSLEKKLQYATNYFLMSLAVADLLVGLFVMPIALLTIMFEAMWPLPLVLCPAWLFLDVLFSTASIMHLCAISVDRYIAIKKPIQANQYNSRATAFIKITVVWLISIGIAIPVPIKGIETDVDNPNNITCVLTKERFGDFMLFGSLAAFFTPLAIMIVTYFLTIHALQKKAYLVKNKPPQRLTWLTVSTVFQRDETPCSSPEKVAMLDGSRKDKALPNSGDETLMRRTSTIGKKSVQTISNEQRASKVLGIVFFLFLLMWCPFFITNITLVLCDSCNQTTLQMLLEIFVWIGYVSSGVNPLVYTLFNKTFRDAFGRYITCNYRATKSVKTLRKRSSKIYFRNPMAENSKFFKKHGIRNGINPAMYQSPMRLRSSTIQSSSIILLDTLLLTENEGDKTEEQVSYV

[5] = molecular target: Vasopressin V2 receptor (Homo sapiens, UniProt P30518)
Sequence of Vasopressin V2 receptor (P30518 whole entry): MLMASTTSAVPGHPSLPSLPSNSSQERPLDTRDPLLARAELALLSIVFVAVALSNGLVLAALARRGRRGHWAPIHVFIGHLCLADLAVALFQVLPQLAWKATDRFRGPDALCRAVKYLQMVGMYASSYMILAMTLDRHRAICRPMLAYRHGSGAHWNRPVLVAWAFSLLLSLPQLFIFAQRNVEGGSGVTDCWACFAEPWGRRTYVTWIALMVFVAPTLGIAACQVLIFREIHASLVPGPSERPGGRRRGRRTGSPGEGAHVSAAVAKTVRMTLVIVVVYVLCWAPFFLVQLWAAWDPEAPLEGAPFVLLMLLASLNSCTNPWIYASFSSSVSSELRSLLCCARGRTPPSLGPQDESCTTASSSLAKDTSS

[6] = molecular target: Vasopressin V1a receptor (Homo sapiens, UniProt P37288)
Sequence of Vasopressin V1a receptor (P37288 whole entry): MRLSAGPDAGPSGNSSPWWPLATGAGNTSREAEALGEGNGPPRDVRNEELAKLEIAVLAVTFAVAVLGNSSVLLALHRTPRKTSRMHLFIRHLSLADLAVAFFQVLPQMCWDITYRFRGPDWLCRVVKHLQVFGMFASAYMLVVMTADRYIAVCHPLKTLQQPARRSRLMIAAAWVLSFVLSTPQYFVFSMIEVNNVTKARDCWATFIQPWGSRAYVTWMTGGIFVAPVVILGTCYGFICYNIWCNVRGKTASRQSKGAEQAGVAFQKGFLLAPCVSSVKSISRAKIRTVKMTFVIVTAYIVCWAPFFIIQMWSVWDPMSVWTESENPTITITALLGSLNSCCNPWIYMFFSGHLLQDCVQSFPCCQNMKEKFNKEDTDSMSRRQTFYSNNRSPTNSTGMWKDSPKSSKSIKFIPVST

[7] = molecular target: 5-hydroxytryptamine receptor 2A (Homo sapiens, UniProt P28223); assay type: functional, cell-based
Sequence of 5-hydroxytryptamine receptor 2A (P28223 whole entry): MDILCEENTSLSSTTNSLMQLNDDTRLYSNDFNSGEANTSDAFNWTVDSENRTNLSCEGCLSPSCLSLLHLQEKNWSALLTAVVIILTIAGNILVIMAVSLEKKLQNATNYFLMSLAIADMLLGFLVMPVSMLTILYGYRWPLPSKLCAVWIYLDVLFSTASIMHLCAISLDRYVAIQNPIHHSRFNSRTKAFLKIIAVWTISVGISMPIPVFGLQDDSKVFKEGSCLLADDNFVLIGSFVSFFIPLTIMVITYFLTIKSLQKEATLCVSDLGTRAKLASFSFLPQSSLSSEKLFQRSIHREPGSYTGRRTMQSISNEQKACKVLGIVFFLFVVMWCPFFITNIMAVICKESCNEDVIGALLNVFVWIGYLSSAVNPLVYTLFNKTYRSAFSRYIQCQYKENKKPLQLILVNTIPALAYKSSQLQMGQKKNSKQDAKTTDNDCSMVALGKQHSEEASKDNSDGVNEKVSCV

[8] = molecular target: T4, Alpha-2A adrenergic receptor (Homo sapiens, UniProt P08913); assay type: functional, cell-based
T4 sequence (P08913 whole entry): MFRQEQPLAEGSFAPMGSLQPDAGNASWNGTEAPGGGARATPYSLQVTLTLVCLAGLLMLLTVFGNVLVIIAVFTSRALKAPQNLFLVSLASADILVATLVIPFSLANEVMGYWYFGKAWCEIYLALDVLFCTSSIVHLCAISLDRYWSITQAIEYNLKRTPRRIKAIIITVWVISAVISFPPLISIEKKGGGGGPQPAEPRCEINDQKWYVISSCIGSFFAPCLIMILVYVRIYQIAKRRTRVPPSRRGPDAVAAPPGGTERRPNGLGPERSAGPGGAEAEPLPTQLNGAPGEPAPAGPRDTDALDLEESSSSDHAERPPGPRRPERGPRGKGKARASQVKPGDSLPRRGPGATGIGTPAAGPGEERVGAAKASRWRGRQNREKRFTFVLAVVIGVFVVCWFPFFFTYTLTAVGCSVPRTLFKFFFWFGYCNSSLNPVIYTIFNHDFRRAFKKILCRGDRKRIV

[9] = molecular target: Histamine H2 receptor (Homo sapiens, UniProt P25021); assay type: functional, cell-based
Sequence of Histamine H2 receptor (P25021 whole entry): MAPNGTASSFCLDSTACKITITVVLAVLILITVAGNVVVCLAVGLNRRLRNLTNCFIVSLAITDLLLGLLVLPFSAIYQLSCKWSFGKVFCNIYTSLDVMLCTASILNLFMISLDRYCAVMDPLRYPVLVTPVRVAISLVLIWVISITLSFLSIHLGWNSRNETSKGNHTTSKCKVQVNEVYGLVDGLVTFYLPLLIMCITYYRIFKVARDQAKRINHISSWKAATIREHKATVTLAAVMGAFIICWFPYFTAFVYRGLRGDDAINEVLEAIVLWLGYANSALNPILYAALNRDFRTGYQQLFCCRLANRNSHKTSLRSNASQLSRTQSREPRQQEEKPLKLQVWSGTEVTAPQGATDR

[10] = molecular target: cGMP-inhibited 3',5'-cyclic phosphodiesterase 3A (Homo sapiens, UniProt Q14432); assay type: functional
Sequence of cGMP-inhibited 3',5'-cyclic phosphodiesterase 3A (Q14432 whole entry): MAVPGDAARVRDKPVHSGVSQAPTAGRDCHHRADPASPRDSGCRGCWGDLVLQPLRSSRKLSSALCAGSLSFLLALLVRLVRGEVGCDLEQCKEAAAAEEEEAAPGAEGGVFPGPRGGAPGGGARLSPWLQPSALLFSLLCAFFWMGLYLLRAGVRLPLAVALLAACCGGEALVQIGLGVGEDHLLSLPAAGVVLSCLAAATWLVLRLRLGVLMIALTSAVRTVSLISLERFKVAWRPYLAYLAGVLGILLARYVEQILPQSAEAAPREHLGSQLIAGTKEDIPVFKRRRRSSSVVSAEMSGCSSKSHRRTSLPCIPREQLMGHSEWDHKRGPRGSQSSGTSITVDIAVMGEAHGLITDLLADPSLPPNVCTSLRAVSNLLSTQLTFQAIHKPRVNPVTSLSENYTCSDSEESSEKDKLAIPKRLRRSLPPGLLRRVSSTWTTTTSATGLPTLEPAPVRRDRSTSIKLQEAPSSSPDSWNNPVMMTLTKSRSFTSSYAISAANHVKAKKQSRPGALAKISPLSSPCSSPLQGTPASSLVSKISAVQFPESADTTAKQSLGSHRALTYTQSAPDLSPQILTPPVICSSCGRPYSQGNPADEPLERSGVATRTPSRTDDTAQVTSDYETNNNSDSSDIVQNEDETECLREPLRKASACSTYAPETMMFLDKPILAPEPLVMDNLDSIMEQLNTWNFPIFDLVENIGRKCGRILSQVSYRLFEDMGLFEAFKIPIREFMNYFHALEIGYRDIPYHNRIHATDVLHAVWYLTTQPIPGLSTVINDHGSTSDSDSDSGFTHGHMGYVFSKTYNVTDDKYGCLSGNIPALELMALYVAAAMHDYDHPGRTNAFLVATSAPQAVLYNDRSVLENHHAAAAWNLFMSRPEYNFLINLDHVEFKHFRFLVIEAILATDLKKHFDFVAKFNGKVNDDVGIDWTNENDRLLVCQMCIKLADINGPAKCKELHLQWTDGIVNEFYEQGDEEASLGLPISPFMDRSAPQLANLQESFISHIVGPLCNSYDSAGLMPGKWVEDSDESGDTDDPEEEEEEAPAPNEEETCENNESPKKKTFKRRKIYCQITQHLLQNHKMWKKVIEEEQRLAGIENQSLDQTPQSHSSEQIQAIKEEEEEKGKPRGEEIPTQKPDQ

[11] = molecular target: Beta-1 adrenergic receptor (Homo sapiens, UniProt P08588); assay type: functional
Sequence of Beta-1 adrenergic receptor (P08588 whole entry): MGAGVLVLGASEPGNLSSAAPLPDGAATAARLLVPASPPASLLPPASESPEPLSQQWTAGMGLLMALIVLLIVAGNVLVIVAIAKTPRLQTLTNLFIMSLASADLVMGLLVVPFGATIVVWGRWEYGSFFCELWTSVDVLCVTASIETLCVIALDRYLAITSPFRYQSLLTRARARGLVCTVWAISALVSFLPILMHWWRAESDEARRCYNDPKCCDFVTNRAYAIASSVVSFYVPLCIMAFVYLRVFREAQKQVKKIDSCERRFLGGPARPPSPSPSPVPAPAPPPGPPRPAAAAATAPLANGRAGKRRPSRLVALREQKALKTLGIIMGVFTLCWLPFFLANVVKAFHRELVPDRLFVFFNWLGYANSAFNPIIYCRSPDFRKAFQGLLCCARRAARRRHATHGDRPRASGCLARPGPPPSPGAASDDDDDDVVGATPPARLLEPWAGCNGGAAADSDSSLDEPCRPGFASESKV

[12] = molecular target: Gamma-aminobutyric acid receptor subunit alpha-1 (Rattus norvegicus, UniProt P62813); assay type: functional
Sequence of Gamma-aminobutyric acid receptor subunit alpha-1 (P62813 whole entry): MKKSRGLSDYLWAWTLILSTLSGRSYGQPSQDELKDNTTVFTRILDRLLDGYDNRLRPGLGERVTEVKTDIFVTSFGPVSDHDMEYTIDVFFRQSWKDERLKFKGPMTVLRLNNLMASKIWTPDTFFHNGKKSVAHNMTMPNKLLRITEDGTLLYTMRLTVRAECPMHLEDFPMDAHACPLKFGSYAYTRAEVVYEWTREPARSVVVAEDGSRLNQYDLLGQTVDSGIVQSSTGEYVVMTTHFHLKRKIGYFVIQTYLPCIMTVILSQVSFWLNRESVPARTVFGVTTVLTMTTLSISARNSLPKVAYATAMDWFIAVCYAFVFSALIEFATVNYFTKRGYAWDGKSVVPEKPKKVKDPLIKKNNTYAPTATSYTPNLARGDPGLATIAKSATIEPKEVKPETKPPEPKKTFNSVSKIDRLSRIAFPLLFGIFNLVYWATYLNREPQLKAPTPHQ

[13] = molecular target: T5, 5-hydroxytryptamine receptor 1A (Homo sapiens, UniProt P08908); assay type: functional, cell-based
T5 sequence (P08908 whole entry): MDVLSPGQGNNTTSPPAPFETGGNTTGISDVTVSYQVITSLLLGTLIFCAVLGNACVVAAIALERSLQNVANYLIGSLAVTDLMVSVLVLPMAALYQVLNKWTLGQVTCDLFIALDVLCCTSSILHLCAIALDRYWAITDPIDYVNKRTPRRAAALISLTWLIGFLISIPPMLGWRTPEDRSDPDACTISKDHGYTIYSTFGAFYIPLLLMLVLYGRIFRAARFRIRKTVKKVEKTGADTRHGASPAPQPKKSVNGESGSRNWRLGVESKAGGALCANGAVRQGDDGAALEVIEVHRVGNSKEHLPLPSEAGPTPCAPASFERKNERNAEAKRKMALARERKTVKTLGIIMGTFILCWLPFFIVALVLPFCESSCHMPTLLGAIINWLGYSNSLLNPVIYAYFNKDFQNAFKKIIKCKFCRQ
Further: assay procedure not described here.

AC50 [1]: > 30 µM
AC50 [2]: > 30 µM
AC50 [3]: > 30 µM
AC50 [4]: > 30 µM
AC50 [5]: > 30 µM
AC50 [6]: > 30 µM
AC50 [7]: > 30 µM
AC50 [8]: > 30 µM
AC50 [9]: > 30 µM
AC50 [10]: > 30 µM
AC50 [11]: > 30 µM
AC50 [12]: > 30 µM
SMILES: CC(C)(Oc1ccc(Cl)cc1)C(=O)OCCOC(=O)c1cccnc1 [ETOFIBRATE]

AC50 [13]: > 30 µM
AC50 [2]: > 30 µM
AC50 [3]: > 30 µM
AC50 [4]: > 30 µM
AC50 [5]: > 30 µM
AC50 [8]: > 30 µM
AC50 [9]: > 30 µM
AC50 [10]: > 30 µM
AC50 [11]: > 30 µM
AC50 [12]: > 30 µM
SMILES: CC1(C)O[C@@H]2C[C@H]3[C@@H]4CCC5=CC(=O)C=C[C@]5(C)[C@@]4(F)[C@@H](O)C[C@]3(C)[C@]2(C(=O)CO)O1 [TRIAMCINOLONE ACETONIDE]

AC50 [13]: > 30 µM
AC50 [1]: > 30 µM
AC50 [2]: > 30 µM
AC50 [3]: > 30 µM
AC50 [4]: 26 µM
AC50 [5]: > 30 µM
AC50 [6]: > 30 µM
AC50 [7]: 24 µM
AC50 [8]: > 30 µM
AC50 [9]: > 30 µM
AC50 [10]: > 30 µM
AC50 [11]: > 30 µM
AC50 [12]: > 30 µM
SMILES: C[C@]12CCC(=O)C=C1[C@@H]1C[C@@H]1[C@H]1[C@@H]3[C@@H]4C[C@@H]4[C@@]4(CCC(=O)O4)[C@@]3(C)CC[C@@H]12 [DROSPIRENONE]

AC50 [13]: > 30 µM
AC50 [1]: > 30 µM
AC50 [2]: > 10 µM
AC50 [3]: > 30 µM
AC50 [4]: > 30 µM
AC50 [5]: > 30 µM
AC50 [6]: 8.7 µM
AC50 [7]: > 30 µM
AC50 [8]: > 30 µM
AC50 [9]: > 30 µM
AC50 [10]: > 30 µM
AC50 [11]: > 10 µM
AC50 [12]: > 30 µM
SMILES: COc1ccc(-c2cc(=S)ss2)cc1 [ANETHOLTRITHION]

AC50 [13]: > 10 µM
AC50 [2]: > 10 µM
AC50 [3]: > 10 µM
AC50 [4]: > 10 µM
AC50 [5]: > 10 µM
AC50 [6]: > 10 µM
AC50 [7]: 4.4 µM
AC50 [8]: > 10 µM
AC50 [9]: > 10 µM
AC50 [10]: > 30 µM
AC50 [11]: > 10 µM
AC50 [12]: > 10 µM
SMILES: CN(C)CCC(O)(c1ccccc1)c1ccccc1Cl (configuration not stated) [CHLOPHEDIANOL]

More lines, now with the values behind:

SMILES: CN1C(C(=O)Nc2ccccn2)=C(OC(=O)/C=C/c2ccccc2)c2ccccc2S1(=O)=O [PIROXICAM CINNAMATE]
AC50 [3]: > 300 µM

SMILES: CCn1c(=O)c2c(nc(/C=C/c3ccc(OC)c(OC)c3)n2C)n(CC)c1=O [ISTRADEFYLLINE]
AC50 [1]: > 30 µM
AC50 [3]: > 30 µM
AC50 [7]: > 30 µM
AC50 [10]: > 30 µM

SMILES: COc1cccc2c1C(=O)c1c(O)c3c(c(O)c1C2=O)C[C@@](O)(C(=O)CO)C[C@@H]3O[C@H]1C[C@H](N)[C@H](O)[C@H](C)O1 [DOXORUBICIN]
AC50 [13]: > 30 µM
AC50 [1]: 16 µM
AC50 [2]: > 30 µM
AC50 [3]: > 30 µM
AC50 [4]: > 10 µM
AC50 [5]: > 30 µM
AC50 [6]: > 30 µM
AC50 [8]: 12 µM
AC50 [9]: > 10 µM
AC50 [10]: > 30 µM
AC50 [11]: > 30 µM
AC50 [12]: > 10 µM
